Here are results for 2 compounds from patent publication US9429582B2, “Tyrosine-phosphorylated WBP2, a novel cancer target and biomarker” (National University of Singapore, priority 2010, dated 2016).

What all share (format): cell-based, human
The test system of experiment [1] is WBP2-Y192-231E mutant-expressing MCF7. Description: Cell proliferation (MTS / cell numbers) of WBP2-Y192-231E mutant-expressing MCF7. As to the method:
(§1) A: Whole cell lysates from vector, WBP2-WT, WBP2-Y192-231E mutant and WBP2-Y192-231F mutant expressing MCF7 or Y192-231E mutant expressing MCF7 with WBP2 knockdown were used for IB analysis with antibodies indicated. B: Vector, WBP2-WT, WBP2-Y192-231E mutant or WBP2-Y192-231F mutant-expressing MCF7 were co-transfected with TOPFlash (top panel) or ERE-Luciferase (bottom panel) reporter construct. For cells co-transfected ERE-luciferase, they were either left alone or stimulated with 50 ng/ml Wnt3a ligand for 16 hrs. TCF/ERα luciferase activities in various conditions were then assayed. **P<0.01, ***P<0.001, Student's t-test (2-tailed). C: Vector or WBP2-Y192-231E mutant-expressing MCF7 were treated with indicated concentrations of Tamoxifen(Tam) and/or FH535. Cell numbers were measured. D: Whole cell lysates from WBP2-Y192-231E mutant-expressing MCF7 treated with 2 μM Tam and/or 15 μM FH5353 were harvested at day 2-4 post-treatment and used for IB analysis with antibodies indicated.
Effect of knockdown of E2F1 and E2F3 on MCF7 cells overexpressing WBP2-Y192-231E. A. MCF7 cells expressing WBP2-Y192-231E were transfected with indicated siRNAs and knockdown efficiency was confirmed using western blotting. B. Cells were co-transfected with indicated siRNAs and E2F reporter plasmid and harvested for luciferase assay after 48 hours. Luciferase readings were normalized against constitutive TK promoter renilla luciferase readings. C. Cells were transfected with indicated siRNAs and BrdU incorporation assay was performed. Percentages of BrdU positive cells relative to control siRNA treated cells were plotted as bar charts. D. Cells were transfected with indicated siRNAs. MTS assay was performed on day 3. Percentages of cell proliferation relative to control siRNA treated cells were plotted as bar charts.
Whole cell lysates from vector, WBP2-WT, WBP2-Y192-231E mutant and WBP2-Y192-231F mutant expressing MCF7 (A) or Y192-231E mutant expressing MCF7 with WBP2 knockdown (B) were used for IB analysis with antibodies indicated. Their expression levels were quantified in three independent experiments and the averages were presented relative to actin. Representative blots (order in lanes from left to right: vector, WBP2, Y192-231E, Y192F) were presented as insets to the bar graphs. **P<0.01, ***P<0.001, Student's t-test (2-tailed) relative to vector. Vector, WBP2-WT, WBP2-Y192-231E mutant or WBP2-Y192-231F mutant-expressing MCF7 were cotransfected with TOPFlash(C) or ERE-Luciferase(D) reporter construct. For cells co-transfected ERE luciferase, they were either left alone or stimulated with 50 ng/ml Wnt3a ligand for 16 hrs. TCF(C)/ER[…](D) luciferase activities in various conditions were then assayed and analyzed in relative to untreated vector control. **P<0.01, ***P<0.001, Student's t-test (2-tailed). E: Vector or WBP2-Y192-231E mutant-expressing MCF7 were treated with indicated concentrations of 2 µM tamoxifen (Tam) and/or 15 µM FH535 for 4 days. Cell numbers were measured daily and compared in relative to vehicle treated vector-expressing cells on Day 0. F: Vector or WBP2-Y192-231E mutant-expressing MCF7 were treated with indicated concentrations (0-50 µM) of FH535 for 2 days. Cell numbers were measured and compared in relative to vehicle-treated cells. Their […] were analyzed statistically with SPSS 13.0. G: Whole cell lysates from WBP2-Y192-231E mutant-expressing MCF7 treated with 2 μM Tam and/or 15 μM FH5353 were harvested at day 2-4 post-treatment and used for IB analysis with antibodies indicated. H: Vector or WBP2-Y192-231E mutant-expressing MCF7 were treated with indicated concentrations of 100 nM fulvestrant and/or 15 µM FH535 for 4 days. Cell numbers were measured on day 2 and day 4 and compared in relative to vehicle-treated control at each day (Top Panel). These treated cells were harvested for IB analysis with antibodies indicated (Bottom Panel). […]

A further experiment relates to ERα. Nature of the experiment: Immunoblot of ERα expression in drug-treated WBP2-Y192-231E mutant-expressing MCF7. The procedure: For cells co-transfected ERE-luciferase, they were either left alone or stimulated with 50 ng/ml Wnt3a ligand for 16 hrs. TCF/ERα luciferase activities in various conditions were then assayed. **P<0.01, ***P<0.001, Student's t-test (2-tailed). […] Cell numbers were measured.
Their expression levels were quantified in three independent experiments and the averages were presented relative to actin. […] For cells co-transfected ERE luciferase, they were either left alone or stimulated with 50 ng/ml Wnt3a ligand for 16 hrs. TCF(C)/ER[…](D) luciferase activities in various conditions were then assayed and analyzed in relative to untreated vector control. **P<0.01, ***P<0.001, Student's t-test (2-tailed). […] Cell numbers were measured daily and compared in relative to vehicle treated vector-expressing cells on Day 0. […] Cell numbers were measured and compared in relative to vehicle-treated cells. […] Cell numbers were measured on day 2 and day 4 and compared in relative to vehicle-treated control at each day (Top Panel). These treated cells were harvested for IB analysis with antibodies indicated (Bottom Panel).
First, we exposed WBP2 phospho-mimic expressing MCF7 cells to serial concentrations of fulvestrant (0.1 nM, 1 nM, 10 nM, 100 nM and 1 μM) and probed for ERα expression to determine the effective working concentration. […] Next, we compared the growth and proliferation of WBP2 phospho-mimic mutant expressing MCF7 in the presence of 100 nM fulvestrant or 15 μM FH535.

Another experiment has as its system vector-expressing MCF7. Nature of the experiment: Cell proliferation (MTS / cell numbers) of vector-expressing MCF7. The note with it: Homo sapiens, 96 h; MCF7 cells expressing vector; day 4; 100 nM fulvestrant or 15 μM FH535; read-out: inhibition of growth / reduction of proliferation. The procedure: as §1
Whole cell lysates from vector, WBP2-WT, WBP2-Y192-231E mutant and WBP2-Y192-231F mutant expressing MCF7 (A) or Y192-231E mutant expressing MCF7 with WBP2 knockdown (B) were used for IB analysis with antibodies indicated. Their expression levels were quantified in three independent experiments and the averages were presented relative to actin. Representative blots (order in lanes from left to right: vector, WBP2, Y192-231E, Y192F) were presented as insets to the bar graphs. **P<0.01, ***P<0.001, Student's t-test (2-tailed) relative to vector. […] TCF(C)/ER[…](D) luciferase activities in various conditions were then assayed and analyzed in relative to untreated vector control. **P<0.01, ***P<0.001, Student's t-test (2-tailed). […] Cell numbers were measured daily and compared in relative to vehicle treated vector-expressing cells on Day 0. […] Cell numbers were measured and compared in relative to vehicle-treated cells. Their […] were analyzed statistically with SPSS 13.0. […] Cell numbers were measured on day 2 and day 4 and compared in relative to vehicle-treated control at each day (Top Panel). […]

Where two headings read alike, the source gives them in different places.

Take `C[C@]12CC[C@@H]3c4ccc(O)cc4C[C@@H](CCCCCCCCC[S+]([O-])CCCC(F)(F)C(F)(F)F)[C@H]3[C@@H]1CC[C@@H]2O` (stereo partly drawn) [fulvestrant]: the inhibition at 0.1 µM in experiment [1] (Homo sapiens, 96 h, MCF7 cells expressing Y192-231E mutant, day 4, 100 nM fulvestrant or 15 μM FH535, read-out: inhibition of growth / reduction of proliferation) is approximately 40%; in the experiment with vector-expressing MCF7 it was approximately 50%. Further, the ERα expression result in the experiment with ERα (WBP2 phospho-mimic expressing MCF7, one hundred nM fulvestrant, data not shown) was “almost completely abolished”.
Regarding `CC/C(=C(\c1ccccc1)c1ccc(OCCN(C)C)cc1)c1ccccc1` [Tamoxifen], the growth inhibition entry in experiment [1] (Y192-231E-expressing MCF7 treated with Tamoxifen) was “No significant growth inhibition”. Moreover, in experiment [1] (Y192-231E-expressing cells, higher doses of up to 2000 nM), the retardation of proliferation entry was “unremarkable”. Moreover, the ERα expression entry in the experiment on ERα is listed as “but not Tamoxifen significantly reduced”.
